Measurements reported in patent US20080287299A1, “Use of Imidazole and/or Triazole Derivatives for Combating Plant Pests; as Well as Method for Controlling Diseases/Insects/Mites/Nematodes and Weeds, Particularly Foliar and/or Soil Diseases” (priority 2005, published 2008).

Columns and labels:
Phakopsora pachyrhizi [1] = assay: Field evaluation of fungicides for control of soybean asian rust, Rondonópolis, MT, Brazil; assay type: in vivo
Description: Results of the 2nd step with defined crops (Evaluation of efficiency of fungicides for controlling soybean asian rust caused by Phakopsora pachyrhizi in the State of Mato Grosso, Brazil)
Several fungicides were evaluated in the control of soybean asian rust (Table 1A). The experiment was effected in Rondonópolis, MT, Brazil, harvest 2005/06, in a commercial area with soybean cultivar. The experiment consisted of 13 treatments (Table 1A).
The experimental outlining was random, in blocks, with 13 treatments and 4 repetitions. Each plot consisted of 6 lines of 6 m, spaced 0.45 m.
The culture traits were suited to the good development of the soybean crop, uniformly applied in the whole experiment.
The spraying was effected in stadiums R3 and R5.1, with coast CO2 sprayer provided with a JA-02-type beak, under a pressure of 0.31 MPa (45 psi), using 110 L of broth per ha. At the first application, the plants were presenting the beginning of rust symptoms at their foliar areas.
The rust was evaluated by analysing the percentage of foliar area affected by the disease, according to Godoy et al., in the plants of the three central lines. Evaluationa related to soybean injury and severity were effected in 14 and 21 days after the first application (DDA), by means of visual observation of the leaves of the plot plants.

Phakopsora pachyrhizi [2] = assay: Greenhouse soybean rust test, plants at V6 stage, evaluated every 5 days; assay type: in vivo
Text: Recent tests carried out in greenhouses the laboratory of FMC Quimica do Brasil Ltda. in Uberaba, MG, Brazil, show the highly fungicidal effect of said specific imidazole and/or triazole derivatives in combating diseases of plants, particularly against the attack by the fungus Phakopsora pachyrhizi on soybeans, as described hereinafter. […]
Equipment: a manual sprayer commonly used in agriculture with 2-liter capacity.
Dosages: 50 to 500 grams per hectare of the active compound Fluconazole per liter diluted in water.
Evaluations of the Effectiveness of the Product: The evaluations were made every 5 days after application of the product, in a total of 4 evaluations. As an evaluation parameter one utilized the severity of the disease (percentage of foliar area attacked by rust) according to the diagrammatic scale of the EMBRAPA (FIG. 1). […]
Dosages: 50 to 500 grams per hectare of the active compound Itraconazole per liter diluted in water.

[3] = Dose 1000 P.C. mL ha^−1, 14 days after the first application
[4] = Dose 1000 P.C. mL ha^−1, 21 days after the first application

## CC(=O)N1CCN(c2ccc(OC[C@H]3CO[C@](Cn4ccnc4)(c4ccc(Cl)cc4Cl)O3)cc2)CC1 (relative stereo) [Ketoconazole, cis-1-acetyl-4-(4-((2-(2,4-dichloro-phenyl)-2-(1H-imidazol-1-ylmethyl)-1,3-dioxolan-4-yl)methoxyl)phenyl)piperazine]
Phakopsora pachyrhizi [1]; [3]
  Severity - affected foliar area (%) 14 DAA: 2.0%
Phakopsora pachyrhizi [1]; [4]
  Severity - affected foliar area (%) 21 DAA: 7.0%
Phakopsora pachyrhizi [2]; 100 g ac/ha, soybeans
  SEVERITY OF RUST (% IFA) 5 DAT: 27 % IFA
  SEVERITY OF RUST (% IFA) 10 DAT: 20 % IFA
  SEVERITY OF RUST (% IFA) 20 DAT: 45 % IFA
Phakopsora pachyrhizi [2]; 200 g ac/ha, soybeans
  SEVERITY OF RUST (% IFA) 5 DAT: 10 % IFA
  SEVERITY OF RUST (% IFA) 10 DAT: 8 % IFA
  SEVERITY OF RUST (% IFA) 20 DAT: 18 % IFA
Phakopsora pachyrhizi [2]; 300 g ac/ha, soybeans
  SEVERITY OF RUST (% IFA) 5 DAT: 10 % IFA
  SEVERITY OF RUST (% IFA) 10 DAT: 6 % IFA
  SEVERITY OF RUST (% IFA) 20 DAT: 16 % IFA
Phakopsora pachyrhizi [2]; 400 g ac/ha, soybeans
  SEVERITY OF RUST (% IFA) 5 DAT: 11 % IFA
  SEVERITY OF RUST (% IFA) 10 DAT: 7 % IFA
  SEVERITY OF RUST (% IFA) 20 DAT: 15 % IFA
Phakopsora pachyrhizi [2]; 500 g ac/ha, soybeans
  SEVERITY OF RUST (% IFA) 5 DAT: 8 % IFA
  SEVERITY OF RUST (% IFA) 10 DAT: 4 % IFA
  SEVERITY OF RUST (% IFA) 20 DAT: 11 % IFA
Phakopsora pachyrhizi [2]; from the dose of 200 grams of active ingredients per hectare
  effectiveness for controlling soybean rust: imparts effectiveness for controlling soybean rust

## OC(Cn1cncn1)(Cn1cncn1)c1ccc(F)cc1F [Fluconazole, alpha-(2,4-difluorophenyl)-alpha-(1H-1,2,4-trizole-1-ylmethyl)-1H-1,2,4-trizole-1-ethanol]
Phakopsora pachyrhizi [1]; Dose 500 P.C. mL ha^−1, 14 days after the first application
  Severity - affected foliar area (%) 14 DAA: 0.6%
Phakopsora pachyrhizi [1]; Dose 500 P.C. mL ha^−1, 21 days after the first application
  Severity - affected foliar area (%) 21 DAA: 4.0%
Phakopsora pachyrhizi [1]; Dose 750 P.C. mL ha^−1, 14 days after the first application
  Severity - affected foliar area (%) 14 DAA: 0.5%
Phakopsora pachyrhizi [1]; Dose 750 P.C. mL ha^−1, 21 days after the first application
  Severity - affected foliar area (%) 21 DAA: 2.0%
Phakopsora pachyrhizi [1]; [3]
  Severity - affected foliar area (%) 14 DAA: 0.4%
Phakopsora pachyrhizi [1]; [4]
  Severity - affected foliar area (%) 21 DAA: 1.5%
Phakopsora pachyrhizi [2]; Table 2: 50 g ac/ha, soybean
  SEVERITY OF RUST (% IFA) 5 DAT: 5 % IFA
  SEVERITY OF RUST (% IFA) 10 DAT: 10 % IFA
  SEVERITY OF RUST (% IFA) 15 DAT: 12 % IFA
  SEVERITY OF RUST (% IFA) 20 DAT: 12 % IFA
Phakopsora pachyrhizi [2]; Table 2: 100 g ac/ha, soybean
  SEVERITY OF RUST (% IFA) 5 DAT: 5 % IFA
  SEVERITY OF RUST (% IFA) 10 DAT: 7 % IFA
  SEVERITY OF RUST (% IFA) 15 DAT: 10 % IFA
  SEVERITY OF RUST (% IFA) 20 DAT: 11 % IFA
Phakopsora pachyrhizi [2]; Table 2: 150 g ac/ha, soybean
  SEVERITY OF RUST (% IFA) 5 DAT: 4 % IFA
  SEVERITY OF RUST (% IFA) 10 DAT: 6 % IFA
  SEVERITY OF RUST (% IFA) 15 DAT: 9 % IFA
  SEVERITY OF RUST (% IFA) 20 DAT: 10 % IFA
Phakopsora pachyrhizi [2]; Table 2: 250 g ac/ha, soybean
  SEVERITY OF RUST (% IFA) 5 DAT: 3 % IFA
  SEVERITY OF RUST (% IFA) 10 DAT: 7 % IFA
  SEVERITY OF RUST (% IFA) 15 DAT: 11 % IFA
  SEVERITY OF RUST (% IFA) 20 DAT: 10 % IFA
Phakopsora pachyrhizi [2]; Table 2: 500 g ac/ha, soybean
  SEVERITY OF RUST (% IFA) 5 DAT: 0 % IFA
  SEVERITY OF RUST (% IFA) 10 DAT: 0 % IFA
  SEVERITY OF RUST (% IFA) 15 DAT: 2 % IFA
  SEVERITY OF RUST (% IFA) 20 DAT: 4 % IFA
Phakopsora pachyrhizi [2]; from 50 grams of active ingredient per hectare
  effective in controlling soybean rust: effective in controlling soybean rust
